Measurements as given in a melting point compilation (Tetko et al.; mined from patent text by program, amines drawn as free bases though some values may be those of a salt).

SMILES	melting point [°C]
CC(C)(C)CC(=O)c1c(-c2ccc3cc(O)ccc3c2)oc2ccccc12	205 to 207
COc1ccc2c(C3NCCc4ccccc43)c(O)ccc2c1 (configuration not stated)	148 to 151
CCSc1nc2cccc(C(=O)OC)c2n1Cc1ccc(-c2ccccc2-c2nc(=O)o[nH]2)cc1	210 to 211
COc1cc(C(=O)N2CCN(C(=O)C3=Cc4ccc(OC)c(OC)c4CCC3)CC2)cc(OC)c1OC	133 to 134
Oc1cc2cc(-c3c(F)cccc3F)sc2c(Cl)c1Cl	161 to 162
CCOC1=CC(=O)N([C@@H]2c3cc(C#N)ccc3OC(C)(C)[C@H]2OC(C)=O)C1 (relative stereo)	156
CC(=O)SC(CC(=O)c1ccc(Oc2ccc(Br)cc2)cc1)C(=O)O (configuration not stated)	117 to 118
CC(C)(C)OC(=O)NC1CCN(C(=O)[C@@]23C[C@@H](c4ccccc42)c2ccc(Cl)cc23)CC1	154 to 156
COc1ccc(S(=O)(=O)Nc2cccnc2/C=C/c2ccc(O)cc2)cc1	217 to 219
CCc1ccc(Nc2c(C(=O)NOCCO)ccc(F)c2F)c(Cl)c1	142 to 145
COc1cc(CCNC(=O)C(F)(F)F)ccc1[N+](=O)[O-]	104
CCOC(=O)C(CCCCNC(=O)OC(C)(C)C)NC(=O)C=CC(=O)c1ccccc1 (configuration not stated)	91 to 94
COc1cc(O)c(C(=O)c2ccccc2)cc1CN(C)C	69
Cc1nnc2n1-c1ccc(C#Cc3cccs3)cc1C(c1ccccc1Cl)=NC2	160 to 163
O=C(Nc1ccc(-n2nc(C(F)(F)F)cc2C(F)(F)F)cc1)c1ccoc1	206 to 207
Cc1cccc(OC2SCC(O)C(O)C2O)n1 (configuration not stated)	54
COc1ccc2nc(C(=O)O)cnc2c1	248
Cc1cc(-c2ccccc2)c2c(n1)C(C(N)=S)CCC2 (configuration not stated)	174 to 175
O=C1CCC(CCN2CCN(c3ccccn3)CC2)CC1	104 to 106
O=S(=O)(c1ccccc1)c1ccc2c(c1)OCCN2CCN1C=CNC1	61.5 to 64.4
Cc1noc(NC(=O)NCCC2CCN(Cc3ccccc3)CC2)n1	138 to 139
Cc1nn(C)c2c1N=C(c1ccc(-n3c(C)nc4cnccc43)cc1)C(C)C(=O)N2C (configuration not stated)	222 to 225
COc1nc(-n2ncc(C#N)c2N)c(Cl)cc1C(F)(F)F	135 to 139
O=C1N(Cc2cccnc2)c2ccccc2C12COc1ccc3nonc3c12 (configuration not stated)	230 to 232
Cc1nn(C)c2nc(N)[nH]c(=O)c12	> 300
Clc1ccc2nc(CN3CCN(c4ccc(Cl)c(Cl)c4)CC3)cn2c1	122 to 124

SMILES	melting point [°C]
Cn1c(CNCC2CCOCC2)cc2cc(NC(=O)c3ccc(OCC4CCOC4)cc3)ccc21 (configuration not stated)	153 to 154
Cc1cc(O)ccc1-n1cc(C(=O)O)c(=O)cc1C1CCCCCCC1	118 to 120
CCOc1ccc2c(c1)C(=O)Cc1c(Cl)cccc1S2	121 to 123
C#Cc1ccc(C(O)C2C(c3ccccc3)CC(=O)N2C)s1 (configuration not stated)	187
O=C(O)CCCCCN1C(=O)c2cccc([N+](=O)[O-])c2C1=O	144
CCCCCCCCCCCCCc1c[nH]c(C(=O)OC)c1	80 to 82
O=C(Nc1ccc(C(F)(F)F)cn1)Oc1ccccc1	203
NC(=S)c1c(F)c(F)c(F)c(F)c1F	92 to 93
CCCN(CCCc1c[nH]c2ccc(OC)cc12)C1COc2c(F)ccc(C(N)=O)c2C1 (configuration not stated)	145 to 152
COC(=O)C(Cc1ccc([N+](=O)[O-])c(OCc2ccccc2)c1)NC(=O)OC(C)(C)C (configuration not stated)	104 to 105
CCOC(=O)C1(C(=O)Nc2ccc(Br)cc2C)OC1C (configuration not stated)	57 to 60
CN(C)CC(F)(F)[C@H](O)[C@@H](N)CC1CCCCC1	47 to 49
CCOC(=O)c1cn2c3c(cc(N(C)C)cc3c1=O)CCC2C (configuration not stated)	219 to 222
Cc1ccc(Cc2ccc(-c3cnn4c(O)ncnc34)cc2)cc1	285 to 292
COc1cc(C2CCC(c3cc(OC)c(OC)c(OC)c3)O2)cc(OC)c1OC (configuration not stated)	128 to 130
CCCCCCCCCCCCCCCCOc1c2ncnc(SCC(=O)OCCCC)c2nn1C	64 to 67
CS(=O)(=O)Nc1c(Br)cnn1-c1ccc(C(F)(F)F)cc1Cl	63 to 65
NC(=O)CNC(=O)c1cccc(-c2ccc(Cl)c3cc(Cc4cc(F)cc(Cl)c4)sc23)c1	204 to 205
CC1Nc2ccc(-c3ccc(C#N)s3)cc2C(C)(C)O1 (configuration not stated)	172 to 173
CSc1nc(C)n(-c2ccc(N)cc2)n1	130 to 136
CC(C)(C)c1ccc(Nc2nnc(Cc3cnc(O)c(-c4ccco4)c3)c3ccccc23)cc1	180 to 182
CCn1cc(C=O)c(-c2ccc([N+](=O)[O-])o2)n1	145 to 146
Cc1cc(C)n(Cc2ccc(Cl)c(Cl)c2)c(=O)c1C#N	139 to 141
CCN1NC=C2C1=NC=CC2(ON=C(C)C)C(O)c1ccccn1 (configuration not stated)	131 to 133
CC(C)(C)OC(=O)Nc1cc(OCC#N)c(C#Cc2ccccc2)cc1[N+](=O)[O-]	170
O=S(=O)(CC(F)(F)F)c1nc2ccccc2[nH]1	172 to 174

SMILES	melting point [°C]
COc1ccc(C2Sc3cccc4cccc(c34)N(CCN(C)C)C(=O)C2O)cc1 (configuration not stated)	121 to 122
N#CCOc1ccc(-c2ccc(=O)n(Cc3ccc(Cl)cc3F)c2)cc1	160
CC(=O)Nc1ccc(C(F)(F)F)cc1C	160
C#Cc1cccc(N2C(=O)c3ccccc3C2=O)c1	197 to 198
COc1cccc(N(c2ccccc2)c2ccc(-c3ccc(N(c4ccccc4)c4cccc(OC)c4)cc3)cc2)c1	120 to 125
CCCCCCNC(=O)Oc1ccc(Oc2ccccc2)cc1	57 to 59
O=C1CCC(N2Cc3c(CNC(=S)NC4CCCCC4)cccc3C2=O)C(=O)N1 (configuration not stated)	> 260
CC(C)(CCl)C(=O)N(O)Cc1ccccc1F	110 to 112
CC1=C(C(=O)OCCOC(C)C)C(c2cccc(Cl)c2Cl)C(c2nnco2)=C(C)N1 (configuration not stated)	151 to 154
C[C@H]1C=CC2=C[C@@H](O)C[C@H](OC(=O)C(C)(C)Oc3ccc(F)cc3)[C@@H]2[C@H]1CC[C@@H]1C[C@@H](O)CC(=O)O1	142 to 145
Cc1ccc(S(=O)(=O)On2nnc3ccc([N+](=O)[O-])cc32)cc1	142 to 144
CCCCOc1ccccc1C=CC(=O)c1ccc(OC)c(OC)c1OC	129 to 130
O=C(O)C1COc2ccc(Cl)c(Cl)c2O1 (configuration not stated)	144 to 148
Nc1ccc(S(=O)(=O)Nc2cc(N)nc(S)n2)cc1	232 to 234
O=[N+]([O-])c1ccc(Cl)cc1OCC=Cc1ccccc1	74.5 to 75.5
COc1cc2c(cc1OC)CCCC(C(=O)N1CCN(Cc3cc(OC)c(OC)c(OC)c3)C(C(=O)O)C1)=C2 (configuration not stated)	142 to 144
CCc1c(C(=O)NNC(=O)C(O)c2cc(F)cc(F)c2)ccc(O)c1C (configuration not stated)	187
O=C(c1ccccc1C(c1ccc(O)cc1)c1ccc(O)cc1)N1CCCCC1	242 to 244
CCCN(C1CCN(C)CC1)S(=O)(=O)c1ccc(Nc2nccc(Nc3ccc(F)cc3)n2)cc1	232
CCCCC(=O)c1c(-c2ccc3c(Cl)c(OCc4nnn[nH]4)ccc3c2)oc2ccccc12	168 to 169
O=P(O)(O)C(F)(F)P(=O)(O)O	87 to 90
O=C(O)CCc1cn(-c2cccnc2)c2ccccc12	147 to 149
Cc1cc(O)c(Oc2ccccc2C#N)cc1Br	99 to 101
CC(=O)N1CCCc2ccc(C(C)NC(=O)C=Cc3ccccc3)cc21 (configuration not stated)	65 to 68
N#Cc1ccc(Oc2cc(F)cc(F)c2)c([N+](=O)[O-])c1	132 to 136
CCCS(=O)(=O)c1cc(C(C)C)c(C#N)cc1C(C)C	113 to 115

SMILES	melting point [°C]
CCc1cc(C#N)ccc1N1C(=O)C(=O)N(C(C)(C)CC)C1=S	173
CCCn1nc2c(Cl)nc3ccccc3c2c1C	145 to 147
CCN1CCCC1CNC(=O)c1cc(OCC(F)(F)F)ccc1OCC(F)(F)F (configuration not stated)	78 to 80
CC(I)CC(F)(F)C(F)(F)C(F)(F)C(F)(F)CC(C)I (configuration not stated)	35 to 35.5
CCc1ncnc2ccc(C#Cc3cc(OC)ccc3OC)cc12	103 to 105
CCCc1cn(CC(=O)O)nc1OCCCc1cn(-c2ccc(C(F)(F)F)cn2)nc1CCC	138 to 139
CCOc1cc(N)c([N+](=O)[O-])cc1C(=O)O	230
CC(=O)COc1ccc(Cl)cc1C(=O)O	90 to 91
CC=CC=CCOC(=O)C1=C(C)NC(C)=C(C(=O)OC(C)(C)C)C1c1cccc([N+](=O)[O-])c1 (configuration not stated)	152 to 154
Clc1ccc(Nc2nnc(Cc3ccncc3)c3ccccc23)cc1Cl	249 to 250
ON=C(Cn1ccnc1)c1ccc(Cl)cc1Cl	205 to 206
CN1CCCNC(=O)C1	91
CN(C)c1c(Br)cc2c3c(cccc13)C(=O)N(O)C2=O	185 to 187
CC1CC(=Cc2ccccc2Cl)C(=O)O1 (configuration not stated)	48
CN(C)c1ccc(-c2ccnc3c(C(=O)c4cccs4)cnn23)cc1NC(=O)c1ccccc1Cl	220 to 222
N#Cc1cc(N)c(N)c(C#N)c1	240 to 244
O=C1c2ccccc2C(=O)N1Cc1cc2ccccc2[nH]1	215 to 220
Clc1ccccc1C(c1ccc(-c2ccccc2)cc1)n1ccnc1 (configuration not stated)	90
O=C1SC[C@@H](CO)N1Cc1ccccc1	87 to 90
NC(=O)N1c2ccccc2C=C(Br)c2ccccc21	168 to 170
O=C(c1cc(Cl)ccc1O)c1ccccc1F	76 to 80.5
C/C=C(\Br)C(=O)Nc1cccc(F)c1	44 to 45.5
C[Si](C)(C)CCC1=C(OC(=O)c2ccccc2)C(=O)c2ccccc2C1=O	92 to 95
Cc1ccc(-c2ccc(C(=O)Nc3ccc4nc(CN5CCCCC5)ccc4c3)cc2)cc1	198 to 200
